Results: ChEMBL document CHEMBL4052831, “The Discovery of N-(1-Methyl-5-(trifluoromethyl)-1H-pyrazol-3-yl)-5-((6- ((methylamino)methyl)pyrimidin-4-yl)oxy)-1H-indole-1-carboxamide (Acrizanib), a VEGFR-2 Inhibitor Specifically Designed for Topical Ocular Delivery, as a Therapy for Neovascular Age-Related Macular Degeneration” (J Med Chem, 2018)
Values belong to the compound of their own block, whether it stands above or below them. Calls of active or inactive are those of the source. The rule behind the calls is not given here.

Columns and labels:
[1] = Intrinsic clearance in rat liver microsomes at 1 uM after 5 to 30 mins by LC-MS/MS analysis; format: ADME, microsome; settings: read-out: CLH
Rattus norvegicus = test: Antiangiogenic activity in Brown Norway rat laser-induced choroidal neovascularization model assessed as inhibition of neovascularization administered 1% suspension using 4 uL topical drop to both eyes every 3 hrs for 9 hrs by microscopic analysis
Mus musculus = test: Antiangiogenic activity in C57BL/6 mouse laser-induced choroidal neovascularization model assessed as inhibition of neovascularization administered 1% suspension using 3.5 uL topical drop to both eyes every 3 hrs for 9 hrs by microscopic analysis
[2] = target: Vascular endothelial growth factor receptor 2 (Homo sapiens, UniProt P35968)
Sequence of Vascular endothelial growth factor receptor 2 (P35968 whole entry): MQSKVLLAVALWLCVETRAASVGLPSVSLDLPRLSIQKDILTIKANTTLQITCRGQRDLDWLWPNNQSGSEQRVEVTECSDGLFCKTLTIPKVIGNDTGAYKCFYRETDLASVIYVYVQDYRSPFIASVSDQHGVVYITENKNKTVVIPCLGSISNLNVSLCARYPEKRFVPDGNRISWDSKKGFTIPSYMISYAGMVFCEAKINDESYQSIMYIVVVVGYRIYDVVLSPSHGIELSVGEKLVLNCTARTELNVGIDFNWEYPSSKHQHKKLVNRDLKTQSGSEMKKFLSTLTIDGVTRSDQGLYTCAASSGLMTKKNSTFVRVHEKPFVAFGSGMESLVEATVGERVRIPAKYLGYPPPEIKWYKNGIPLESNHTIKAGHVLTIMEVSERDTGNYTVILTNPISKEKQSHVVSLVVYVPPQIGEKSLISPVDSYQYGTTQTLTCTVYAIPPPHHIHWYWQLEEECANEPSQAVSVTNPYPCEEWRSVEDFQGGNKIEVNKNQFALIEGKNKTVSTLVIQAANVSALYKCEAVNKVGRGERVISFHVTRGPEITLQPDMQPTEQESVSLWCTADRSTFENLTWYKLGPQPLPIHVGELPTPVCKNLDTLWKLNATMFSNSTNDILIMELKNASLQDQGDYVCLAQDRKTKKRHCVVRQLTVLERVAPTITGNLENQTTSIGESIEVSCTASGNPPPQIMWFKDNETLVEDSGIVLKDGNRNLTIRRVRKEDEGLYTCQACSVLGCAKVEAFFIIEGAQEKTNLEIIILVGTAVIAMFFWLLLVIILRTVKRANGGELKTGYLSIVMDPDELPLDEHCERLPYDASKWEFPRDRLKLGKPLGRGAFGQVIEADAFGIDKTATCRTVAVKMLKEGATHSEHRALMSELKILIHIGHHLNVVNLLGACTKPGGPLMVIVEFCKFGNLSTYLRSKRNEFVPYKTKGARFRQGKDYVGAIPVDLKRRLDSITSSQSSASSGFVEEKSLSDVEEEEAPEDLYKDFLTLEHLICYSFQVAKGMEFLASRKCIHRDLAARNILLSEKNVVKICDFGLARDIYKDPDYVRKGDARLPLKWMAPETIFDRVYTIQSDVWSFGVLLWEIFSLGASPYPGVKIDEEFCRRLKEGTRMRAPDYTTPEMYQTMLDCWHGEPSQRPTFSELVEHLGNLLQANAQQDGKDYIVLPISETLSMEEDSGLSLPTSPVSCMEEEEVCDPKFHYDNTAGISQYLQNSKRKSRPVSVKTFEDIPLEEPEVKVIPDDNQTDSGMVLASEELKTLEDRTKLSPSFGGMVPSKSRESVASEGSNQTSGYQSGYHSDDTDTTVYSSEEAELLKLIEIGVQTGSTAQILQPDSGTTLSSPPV
Description: Inhibition of KDR (unknown origin) expressed in mouse Ba/F3 cells

microsomal CLint at 1 µM [1]: 114 µL/min/mg
Compound: CNCc1cc(Oc2ccc3c(ccn3C(=O)Nc3cc(C(C)C)on3)c2)ncn1

Compound: CC(=O)N1Cc2ncnc(Oc3ccc4c(ccn4C(=O)Nc4cc(C5CC5)on4)c3)c2C1
inhibition (Rattus norvegicus): inactive

Compound: CC(C)(CO)c1cc(NC(=O)n2ccc3cc(Oc4ncnc5c4CNC5)ccc32)no1
inhibition (Mus musculus): inactive

microsomal CLint at 1 µM [1]: 43 µL/min/mg
Compound: CNCc1cc(Oc2ccc3c(ccn3C(=O)Nc3cccc(C(F)(F)F)c3)c2)ncn1

Compound: O=C(Nc1cc(C2CCOCC2)on1)n1ccc2cc(Oc3ncnc4c3CNC4)ccc21
inhibition (Mus musculus): inactive

IC50 [2]: 1.3 nM
Compound: O=C(Nc1cccc(C(F)(F)F)c1)c1cccc2cc(Oc3cc(CO)ncn3)ccc12 [BFH-772]

Compound: O=C(Nc1cc(C2CC2)on1)n1ccc2cc(Oc3ncnc4c3CCNC4)ccc21
inhibition (Mus musculus): inactive
